Where two headings read alike, the source gives them in different places.
Experiments:
J774.1A macrophages = experiment: Cytotoxicity on macrophages (MTT, 48 h); assay type: cell-based; details: Macrophage, read-out: IC50,J774.1A
Method: Cytotoxicity - J774.1A macrophages (ATCC® TIB67™) were grown in DMEM milieu supplemented with 10% […] FBS, 1% L-glutamine, 1% streptomycin, and 100 units/mL penicillin. Cell viability was assessed using the MTT protocol. […] Cells were grown in 96-well plates (5 × 10^4 cells/well) for 24 h. Cultures were carried out at 37 °C in a humidified atmosphere with 5% CO2 and incubated with the compounds at different concentrations for 48 h. After incubation, the milieu was removed, and the cells were treated with 100 μL of 0.4 mg/mL MTT for 4 h at 37 °C. Subsequently, 100 μL of DMSO was added to the mixture. The solubilised formazan product was quantified through absorbance measurements at 570 nm. The absorbance values were transformed to the percentage of cytotoxicity compared to the negative controls.

epimastigote T. cruzi = experiment: Anti-epimastigote activity in modified milieu (excess Ca2+, glutamate or N-acetyl-L-cysteine, 1 mM); assay type: cell-based; details: Trypanosoma cruzi; for inhibition at 25 µM: read-out: Percentage of growth inhibition at 25 µM
Method: Three controls of untreated parasites and containing excess of calcium (II), glutamate or N-acetyl-L-cysteine (1 mM) were included. All treated and untreated wells contain no more than 0.4% of DMSO. Controls were used to calculate the relative proliferation in the treatment wells. Assays were performed in triplicate for all cases.

[1] = test system: epimastigotes of T. cruzi (Tulahuen 2 strain, DTU Tc VI); experiment: Screening / IC50 against T. cruzi epimastigotes (growth, absorbance 610 nm, 5 days); assay type: cell-based, Trypanosoma cruzi; details: for SIepi: SIepi = IC50,J774.1A/IC50,epi; for IC50: Trypanosoma cruzi, 120 h, read-out: IC50,epi; for anti-epimastigote activity in the initial screening (in words): 25 µM or 100 µg/mL, cut-off more than 65% inhibition
Method: (§1) Screening - Entities, dissolved in dimethylsulfoxide (DMSO, Sigma) before use and then diluted in a culture milieu, were firstly tested against epimastigotes of T. cruzi [Tulahuen 2 strain, discrete typing unit (DTU) Tc VI] as previously described.[14] ^, [15] […] The system was incubated at 28 °C for five days and to assess cell proliferation, cell density was monitored at 610 nm at time 0 (Ap0) and five days post incubation (Ap). All measures were normalised to the control population at day 0 (Ac0) and at day 5 (Ac5). Control parasites were incubated with 0.4% DMSO, corresponding to the highest DMSO concentration of the well. The percentage of parasite inhibition was calculated as: […]. This assay was independently performed three times. […] Secondly,[16] Vero (ATCC® CCL-81™) cells were infected with T. cruzi metacyclic trypomastigotes from 15 days old Dm28 clone (DTU Tc I) epimastigote cultures. Subsequently, the trypomastigotes harvested from this culture were used to infect further Vero cell cultures at a multiplicity of infection of 10. These trypomastigote-infected Vero cell cultures were incubated at 37 °C in humidified air and 5% CO2 for five to seven days. After this time, cellular trypomastigotes were collected from the supernatant by centrifugation at 3,000 × g for 10 min. The trypomastigote-containing pellets were resuspended in RPMI media supplemented with 5% foetal bovine serum (FBS) and penicillin/streptomycin at a final density of 1 × 10^8 parasites/mL. For viability assays, 1 × 10^7 trypomastigotes were seeded in black 96 well plates in RPMI and incubated with increasing concentrations of the entities under study for 24 h. Viability was analysed using resazurin, which is reduced to highly fluorescent resorufin. 50 μL of resazurin solution (2 mg/mL in RPMI) were added to each well and incubated for 4 h at 37 °C. Fluorescence (excitation 530 nm / emission 590 nm) was measured in a Thermo Scientific Varioskan® Flash Multimode plate spectrofluorimeter instrument. Untreated parasites were used as negative controls (100% of viability). […] Thirdly, for infection persistence analysis,[16] trypomatigotes Vero cells (at a multiplicity of infection of 10) growing in RPMI were trypsinised and replated in 24-wll plates (2-3 × 10^5 cells/well). […] After 24 h of incubation, cells were washed with phosphate-buffered saline (PBS), fixed with 4% paraformaldehyde, and stained with DAPI. Infected cells and amastigotes per cell were counted from randomly selected fields (400 cells per conditions). Two independent infections with trypomastigotes pre-treated with entities by two independent technicians were analysed. The percentage of uninfected Vero cells over total cells, as well as the percentage of decrease in the number of amastigotes per infected cell, was counted for each studied compound concentration tested and normalised against control untreated parasites.

[2] = test system: Trypanosoma cruzi trypomastigotes (Dm28c); experiment: Trypomastigote viability (resazurin, 24 h); assay type: cell-based; details: fixed concentrations, Fig. 1
Method: Screening - Entities, dissolved in dimethylsulfoxide (DMSO, Sigma) before use and then diluted in a culture milieu, were firstly tested against epimastigotes of T. cruzi [Tulahuen 2 strain, discrete typing unit (DTU) Tc VI] as previously described.[14] ^, [15] […] The system was incubated at 28 °C for five days and to assess cell proliferation, cell density was monitored at 610 nm at time 0 (Ap0) and five days post incubation (Ap). All measures were normalised to the control population at day 0 (Ac0) and at day 5 (Ac5). Control parasites were incubated with 0.4% DMSO, corresponding to the highest DMSO concentration of the well. The percentage of parasite inhibition was calculated as: (Ap - Ap0)/(Ac5 - Ac0) × 100. This assay was independently performed three times. […] Secondly,[16] Vero (ATCC® CCL-81™) cells were infected with T. cruzi metacyclic trypomastigotes from 15 days old Dm28 clone (DTU Tc I) epimastigote cultures. […] Viability was analysed using resazurin, which is reduced to highly fluorescent resorufin. […] Fluorescence (excitation 530 nm / emission 590 nm) was measured in a Thermo Scientific Varioskan® Flash Multimode plate spectrofluorimeter instrument. […] Infected cells and amastigotes per cell were counted from randomly selected fields (400 cells per conditions). Two independent infections with trypomastigotes pre-treated with entities by two independent technicians were analysed. […]

[3] = test system: amastigote forms of T. cruzi in Vero cells (Dm28 clone, DTU Tc I); assay type: cell-based; details: 24 h
Method: as §1
The number of amastigotes per cell as well as the number of infected cells was then counted.

[4] = Ca2+ 1 mM, read-out: IC50,epi with excess of Ca2+
[5] = epimastigotes Tulahuen 2, 5 days

SMILES | IC50 (J774.1A macrophages; macrophages, MTT) | SIepi [1] | IC50 [1, 5] | also measured
CCOC(=O)C1=C(COCCN)NC(C)=C(C(=O)OC)C1c1ccccc1Cl (centres unmarked) [Amlod, Amlodipine] | 95.7 µM | 7.00 | 13.7 µM | IC50 (epimastigote T. cruzi; [4]): ~25 µM
O=C(Cn1ccnc1[N+](=O)[O-])NCc1ccccc1 [Bnz, Benznidazole] | 247 µM | 50.2 | 4.93 µM | 
C[C@H]1c2cccc(O)c2C(=O)C2=C(O)[C@]3(O)C(=O)C(C(N)=O)=C(O)[C@@H](N(C)C)[C@@H]3[C@@H](O)[C@@H]21 [Dox, Doxycycline] | 23.8 µM | 1.24 | 19.1 µM | 
C#Cc1cccc(Nc2ncnc3cc(OCCOC)c(OCCOC)cc23)c1 [Erlo, Erlotinib] |  |  |  | anti-epimastigote activity in the initial screening (in words) [1]: did not display anti-T. cruzi activities in the assayed conditions
NCC1(CC(=O)O)CCCCC1 [Gaba, Gabapentin] |  |  |  | IC50 (J774.1A macrophages): 19.1 µM; IC50 (epimastigote T. cruzi; read-out: IC50,epi with excess of Ca2+): > 25 µM; IC50 (epimastigote T. cruzi; read-out: IC50,epi with excess of glutamate): > 25 µM; IC50 ([1]; TULAHUEN): 6.01 µM
CC(=O)N1CCN(c2ccc(OCC3COC(Cn4ccnc4)(c4ccc(Cl)cc4Cl)O3)cc2)CC1 (centres unmarked) [Ket, Ketoconazole] | 13.3 µM | 2.60 | 5.13 µM | 
CS(=O)(=O)CCNCc1ccc(-c2ccc3ncnc(Nc4ccc(OCc5cccc(F)c5)c(Cl)c4)c3c2)o1 [Lapa, Lapatinib] | 7.6 µM |  | 16.6 µM | 
CCOC(=O)N1CCC(=C2c3ccc(Cl)cc3CCc3cccnc32)CC1 [Lorat, Loratadine] | 7.8 µM | 8.21 | 0.95 µM | 
NC(=O)NN=C1C=Cc2ccccc2C1=O [Naft, Naftazone] | 102 µM | 135.7 | 0.75 µM | anti-trypomastigote activity (in words) [2]: excellent cytotoxic agent for this form of the parasite; IC50 (epimastigote T. cruzi; [4]): 2.8 µM; IC50 (epimastigote T. cruzi; NAC 1 mM, read-out: IC50,epi with excess of N-acetyl-L-cysteine (NAC)): 1.9 µM; IC50 (epimastigote T. cruzi; glutamate 1 mM, read-out: IC50,epi with excess of glutamate): 13.5 µM; %dnac: percentage of decrease in the number of amastigotes per treated Vero cell respect to control ([3]; 6.25 µM): 0%; %ucell: percentage of uninfected Vero cells with amastigotes respect to untreated parasites ([3]; 6.25 µM): 0%; %dnac: percentage of decrease in the number of amastigotes per treated Vero cell respect to control ([3]; 12.5 µM): 0%; %ucell: percentage of uninfected Vero cells with amastigotes respect to untreated parasites ([3]; 12.5 µM): 0%; %dnac: percentage of decrease in the number of amastigotes per treated Vero cell respect to control ([3]; 25 µM): 24%; %ucell: percentage of uninfected Vero cells with amastigotes respect to untreated parasites ([3]; 25 µM): 15%
CC1CS(=O)(=O)CCN1/N=C/c1ccc([N+](=O)[O-])o1 (centres unmarked) [Nfx, nifurtimox] |  |  |  | inhibition at 25 µM (epimastigote T. cruzi; with Ca2+ (1 mM)): 61%; inhibition at 25 µM (epimastigote T. cruzi; with Glu (1 mM)): 55%; inhibition at 25 µM (epimastigote T. cruzi; with NAC (1 mM)): 20%; inhibition at 25 µM (epimastigote T. cruzi; without Ca2+): 70%; inhibition at 25 µM (epimastigote T. cruzi; without Glu): 70%; inhibition at 25 µM (epimastigote T. cruzi; without NAC): 74%
O=C1CN(/N=C/c2ccc([N+](=O)[O-])o2)C(=O)N1 [Nitrof, Nitrofurantoin] | 61.1 µM | 4.59 | 13.3 µM | 
CCC(C)(C)C(=O)O[C@H]1C[C@@H](C)C=C2C=C[C@H](C)[C@H](CC[C@@H]3C[C@@H](O)CC(=O)O3)[C@H]21 [Simv, Simvastatin] | 6.5 µM | 0.88 | 7.36 µM | 
CCN(CC)CCNC(=O)c1c(C)[nH]c(/C=C2\C(=O)Nc3ccc(F)cc32)c1C [Sun, Sunitinib] |  |  |  | anti-epimastigote activity in the initial screening (in words) [1]: did not display anti-T. cruzi activities in the assayed conditions
CN(C/C=C/C#CC(C)(C)C)Cc1cccc2ccccc12 [Terb, Terbinafine] | 65 µM | 3.05 | 21.4 µM | %dnac: percentage of decrease in the number of amastigotes per treated Vero cell respect to control ([3]; 6.25 µM): 20%; %ucell: percentage of uninfected Vero cells with amastigotes respect to untreated parasites ([3]; 6.25 µM): 4%; %dnac: percentage of decrease in the number of amastigotes per treated Vero cell respect to control ([3]; 12.5 µM): 23%; %ucell: percentage of uninfected Vero cells with amastigotes respect to untreated parasites ([3]; 12.5 µM): 15%

Source: publication PMC11809512, “Looking for approved-medicines to be repositioned as anti-Trypanosoma cruzi agents. Identification of new chemotypes with good individual- or in combination-biological behaviours” (Memórias do Instituto Oswaldo Cruz, 2025)
